# Paper PMC7827406, “Structure–Activity Relationship (SAR) Study of Spautin-1 to Entail the Discovery of Novel NEK4 Inhibitors” (International Journal of Molecular Sciences, 2021)
# Where two headings read alike, the source gives them in different places.
# Tests used:
# Experiment in all cases: biochemical
# Design in all cases: Eurofins KinaseProfiler full panel at Km ATP, residual kinase activity (%) relative to DMSO
# CDK12/cyclinK(h) = CDK12/cyclinK(h) (Homo sapiens, UniProt Q9NYV4)
# Method in brief: (§1)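 Compounds screened at 10 µM in radiometric kinase activity assays at Km ATP, reported as remaining kinase activity (%). A KINOMEscan competition-binding screen at 10 µM measured DNA-tagged kinase retained on immobilized active-site ligand by qPCR.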
# Hck(h) activated = Hck(h) activated (Homo sapiens, UniProt P08631)
# Method in brief: as §1
# [1] = biological target: T1, PI3 Kinase (p110b/p85a)(m) (Mus musculus, UniProt Q8BTI9)
# T1 construct: gene Pik3cb
# Method in brief: as §1
# PIP4K2a(h) = biological target: T2, PIP4K2a(h) (Homo sapiens, UniProt P48426)
# T2 sequence (P48426 1-406): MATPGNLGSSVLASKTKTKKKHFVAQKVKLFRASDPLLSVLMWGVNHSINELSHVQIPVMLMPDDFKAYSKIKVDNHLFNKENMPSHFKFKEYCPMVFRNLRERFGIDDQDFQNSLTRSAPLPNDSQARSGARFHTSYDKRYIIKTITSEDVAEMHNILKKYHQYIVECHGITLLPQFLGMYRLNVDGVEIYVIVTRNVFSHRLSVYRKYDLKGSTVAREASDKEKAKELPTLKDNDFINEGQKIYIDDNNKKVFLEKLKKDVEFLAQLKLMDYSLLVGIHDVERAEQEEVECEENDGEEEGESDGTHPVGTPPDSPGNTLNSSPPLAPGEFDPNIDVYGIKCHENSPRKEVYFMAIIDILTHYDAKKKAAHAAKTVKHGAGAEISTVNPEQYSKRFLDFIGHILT
# Method in brief: as §1
# eEF-2K(h) = biological target: T3, eEF-2K(h) (Homo sapiens, UniProt O00418)
# T3 construct: gene EEF2K
# T3 sequence (O00418 1-725): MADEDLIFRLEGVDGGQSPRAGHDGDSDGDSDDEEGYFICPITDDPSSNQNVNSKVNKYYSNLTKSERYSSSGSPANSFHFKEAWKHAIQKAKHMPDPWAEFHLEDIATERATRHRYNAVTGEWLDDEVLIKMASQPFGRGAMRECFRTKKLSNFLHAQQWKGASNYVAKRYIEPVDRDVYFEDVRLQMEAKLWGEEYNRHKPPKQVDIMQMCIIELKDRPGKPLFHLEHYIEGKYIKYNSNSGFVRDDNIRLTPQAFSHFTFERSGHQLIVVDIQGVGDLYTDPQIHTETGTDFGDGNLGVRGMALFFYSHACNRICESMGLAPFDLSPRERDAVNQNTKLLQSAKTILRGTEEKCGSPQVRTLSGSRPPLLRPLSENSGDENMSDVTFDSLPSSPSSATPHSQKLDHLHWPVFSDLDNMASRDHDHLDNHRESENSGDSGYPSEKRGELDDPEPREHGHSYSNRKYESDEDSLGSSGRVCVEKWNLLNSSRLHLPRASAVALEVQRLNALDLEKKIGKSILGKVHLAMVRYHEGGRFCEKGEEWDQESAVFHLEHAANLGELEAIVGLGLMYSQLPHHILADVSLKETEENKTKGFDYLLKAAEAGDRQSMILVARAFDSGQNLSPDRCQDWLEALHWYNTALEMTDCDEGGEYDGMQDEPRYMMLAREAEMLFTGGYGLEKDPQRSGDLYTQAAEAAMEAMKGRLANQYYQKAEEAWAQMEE
# Method in brief: as §1
# [2] = read-out: Residual activity (%) 5ay
# [3] = read-out: Residual activity (%) Spautin-1 5aa
# [4] = read-out: Residual activity (%) 5at
# [5] = read-out: Residual activity (%) 5as
# T1 sequence (Q8BTI9 whole entry): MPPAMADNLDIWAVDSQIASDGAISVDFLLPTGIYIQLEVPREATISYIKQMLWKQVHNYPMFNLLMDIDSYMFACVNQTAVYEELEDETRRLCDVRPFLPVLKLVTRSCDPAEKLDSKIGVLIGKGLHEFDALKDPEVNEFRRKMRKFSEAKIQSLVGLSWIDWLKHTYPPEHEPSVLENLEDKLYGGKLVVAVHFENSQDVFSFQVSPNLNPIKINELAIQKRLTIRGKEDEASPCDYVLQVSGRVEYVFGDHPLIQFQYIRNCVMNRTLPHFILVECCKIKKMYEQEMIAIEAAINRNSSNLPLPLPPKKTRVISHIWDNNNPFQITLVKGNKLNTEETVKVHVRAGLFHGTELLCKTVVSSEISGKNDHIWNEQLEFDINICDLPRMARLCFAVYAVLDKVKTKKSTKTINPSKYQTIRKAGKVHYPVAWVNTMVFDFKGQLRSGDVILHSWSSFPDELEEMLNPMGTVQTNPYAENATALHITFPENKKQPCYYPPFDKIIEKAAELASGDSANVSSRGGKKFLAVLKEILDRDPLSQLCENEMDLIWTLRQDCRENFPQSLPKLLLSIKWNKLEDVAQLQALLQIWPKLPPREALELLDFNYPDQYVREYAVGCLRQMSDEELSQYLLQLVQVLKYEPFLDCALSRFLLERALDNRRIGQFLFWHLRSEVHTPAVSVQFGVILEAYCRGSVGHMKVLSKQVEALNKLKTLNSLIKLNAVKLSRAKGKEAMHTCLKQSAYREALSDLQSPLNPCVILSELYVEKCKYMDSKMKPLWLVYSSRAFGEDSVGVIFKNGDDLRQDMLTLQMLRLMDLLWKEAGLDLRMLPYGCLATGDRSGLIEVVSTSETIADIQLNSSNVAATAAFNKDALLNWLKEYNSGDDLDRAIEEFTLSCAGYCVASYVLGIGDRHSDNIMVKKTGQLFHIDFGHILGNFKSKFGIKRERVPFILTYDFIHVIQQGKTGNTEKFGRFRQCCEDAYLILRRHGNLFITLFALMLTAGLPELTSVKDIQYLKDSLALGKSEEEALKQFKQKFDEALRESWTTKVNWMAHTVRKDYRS
# T1 sequence (P26450 whole entry partner): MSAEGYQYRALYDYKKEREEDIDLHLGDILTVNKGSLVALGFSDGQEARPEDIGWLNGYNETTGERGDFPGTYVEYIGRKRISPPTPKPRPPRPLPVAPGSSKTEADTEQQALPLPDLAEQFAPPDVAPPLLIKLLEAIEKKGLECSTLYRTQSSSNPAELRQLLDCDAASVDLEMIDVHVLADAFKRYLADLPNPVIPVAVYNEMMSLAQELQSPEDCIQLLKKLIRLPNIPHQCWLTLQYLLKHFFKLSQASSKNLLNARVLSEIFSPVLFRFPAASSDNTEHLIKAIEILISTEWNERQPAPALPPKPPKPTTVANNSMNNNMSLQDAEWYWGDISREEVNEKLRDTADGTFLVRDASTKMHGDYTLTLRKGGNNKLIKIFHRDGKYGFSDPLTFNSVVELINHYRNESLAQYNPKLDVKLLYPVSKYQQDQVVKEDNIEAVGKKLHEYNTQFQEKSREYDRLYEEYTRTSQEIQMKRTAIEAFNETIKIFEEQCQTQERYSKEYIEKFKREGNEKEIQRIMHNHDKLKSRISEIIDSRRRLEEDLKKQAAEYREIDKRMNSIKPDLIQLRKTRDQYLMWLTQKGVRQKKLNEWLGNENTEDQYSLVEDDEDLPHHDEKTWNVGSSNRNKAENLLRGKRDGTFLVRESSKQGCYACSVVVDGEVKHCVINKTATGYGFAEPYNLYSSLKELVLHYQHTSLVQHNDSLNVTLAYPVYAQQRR
# Hck(h) activated, sequence (P08631 whole entry): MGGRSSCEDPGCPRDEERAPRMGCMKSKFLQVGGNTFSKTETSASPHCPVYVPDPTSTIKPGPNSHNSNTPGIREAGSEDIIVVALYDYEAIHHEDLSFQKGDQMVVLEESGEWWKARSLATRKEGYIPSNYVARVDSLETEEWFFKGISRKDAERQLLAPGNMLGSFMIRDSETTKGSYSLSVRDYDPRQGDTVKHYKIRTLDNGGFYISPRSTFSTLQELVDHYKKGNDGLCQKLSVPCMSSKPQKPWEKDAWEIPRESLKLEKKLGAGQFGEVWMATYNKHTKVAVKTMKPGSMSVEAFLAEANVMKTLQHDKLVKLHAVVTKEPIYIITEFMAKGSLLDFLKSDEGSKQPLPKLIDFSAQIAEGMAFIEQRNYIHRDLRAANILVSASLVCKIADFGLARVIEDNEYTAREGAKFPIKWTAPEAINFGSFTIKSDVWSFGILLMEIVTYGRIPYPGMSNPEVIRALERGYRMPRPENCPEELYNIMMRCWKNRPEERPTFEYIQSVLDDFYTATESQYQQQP
# CDK12/cyclinK(h), sequence (Q9NYV4 whole entry): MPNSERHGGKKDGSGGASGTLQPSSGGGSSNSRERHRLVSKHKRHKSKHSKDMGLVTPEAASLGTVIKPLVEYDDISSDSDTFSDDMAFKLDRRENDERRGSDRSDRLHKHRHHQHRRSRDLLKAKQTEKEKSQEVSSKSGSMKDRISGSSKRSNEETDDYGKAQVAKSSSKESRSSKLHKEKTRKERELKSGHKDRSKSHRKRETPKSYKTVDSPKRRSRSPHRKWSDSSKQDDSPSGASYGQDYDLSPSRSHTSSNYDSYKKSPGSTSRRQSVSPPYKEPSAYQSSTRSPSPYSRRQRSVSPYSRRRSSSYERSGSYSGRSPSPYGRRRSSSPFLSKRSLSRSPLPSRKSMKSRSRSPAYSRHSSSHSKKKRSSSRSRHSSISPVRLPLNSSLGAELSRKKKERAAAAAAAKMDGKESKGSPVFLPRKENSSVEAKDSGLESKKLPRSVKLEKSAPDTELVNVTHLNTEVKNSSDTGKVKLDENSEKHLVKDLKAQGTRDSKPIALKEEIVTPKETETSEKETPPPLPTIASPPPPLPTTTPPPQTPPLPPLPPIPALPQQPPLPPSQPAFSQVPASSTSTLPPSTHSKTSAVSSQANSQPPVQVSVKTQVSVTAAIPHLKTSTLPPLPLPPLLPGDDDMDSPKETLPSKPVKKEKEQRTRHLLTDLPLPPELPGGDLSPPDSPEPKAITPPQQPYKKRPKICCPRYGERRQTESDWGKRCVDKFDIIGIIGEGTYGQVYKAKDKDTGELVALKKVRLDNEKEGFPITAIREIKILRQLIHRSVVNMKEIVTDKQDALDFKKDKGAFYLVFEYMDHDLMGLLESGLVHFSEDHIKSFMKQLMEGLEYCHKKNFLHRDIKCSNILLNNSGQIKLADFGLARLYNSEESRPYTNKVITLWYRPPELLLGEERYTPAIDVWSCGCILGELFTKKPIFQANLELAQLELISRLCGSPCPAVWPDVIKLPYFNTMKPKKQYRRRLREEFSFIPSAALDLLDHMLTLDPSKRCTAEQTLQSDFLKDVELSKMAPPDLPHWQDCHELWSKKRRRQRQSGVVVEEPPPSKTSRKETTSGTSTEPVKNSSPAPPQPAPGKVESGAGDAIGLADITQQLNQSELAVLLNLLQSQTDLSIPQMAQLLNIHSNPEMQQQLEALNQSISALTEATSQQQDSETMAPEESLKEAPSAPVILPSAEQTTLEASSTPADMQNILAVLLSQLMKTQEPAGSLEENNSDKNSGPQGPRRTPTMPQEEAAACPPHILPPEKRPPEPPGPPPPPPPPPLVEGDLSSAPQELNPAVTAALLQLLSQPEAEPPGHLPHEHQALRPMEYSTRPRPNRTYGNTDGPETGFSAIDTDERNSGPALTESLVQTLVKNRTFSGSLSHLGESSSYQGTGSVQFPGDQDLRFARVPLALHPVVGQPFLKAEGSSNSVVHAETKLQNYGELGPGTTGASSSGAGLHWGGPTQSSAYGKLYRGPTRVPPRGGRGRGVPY
# CDK12/cyclinK(h), sequence (O75909 whole entry partner): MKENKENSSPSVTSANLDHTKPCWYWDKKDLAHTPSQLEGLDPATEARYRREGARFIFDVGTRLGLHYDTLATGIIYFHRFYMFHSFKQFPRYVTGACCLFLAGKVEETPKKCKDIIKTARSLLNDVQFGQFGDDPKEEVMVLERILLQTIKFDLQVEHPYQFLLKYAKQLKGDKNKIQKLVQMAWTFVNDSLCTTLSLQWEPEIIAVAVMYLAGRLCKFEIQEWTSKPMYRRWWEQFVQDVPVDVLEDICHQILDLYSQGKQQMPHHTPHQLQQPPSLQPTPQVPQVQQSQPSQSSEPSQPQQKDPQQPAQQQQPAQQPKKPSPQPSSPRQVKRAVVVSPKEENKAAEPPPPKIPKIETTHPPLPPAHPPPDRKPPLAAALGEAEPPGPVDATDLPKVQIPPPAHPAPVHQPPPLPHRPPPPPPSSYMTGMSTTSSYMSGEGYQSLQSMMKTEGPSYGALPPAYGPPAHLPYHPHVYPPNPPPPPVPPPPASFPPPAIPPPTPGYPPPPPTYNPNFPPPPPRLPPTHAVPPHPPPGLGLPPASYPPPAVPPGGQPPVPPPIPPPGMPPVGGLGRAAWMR
compound,measurement,setting,value
"COc1ccc2ncnc(Nc3cccc(F)c3)c2c1 [5ay, N-(3-Fluorophenyl)-6-Methoxy-4-Quinazolinamine]",remaining activity at 10 µM,CDK12/cyclinK(h); [2],69%
same,remaining activity at 10 µM,Hck(h) activated; [2],46%
same,remaining activity at 10 µM,[1]; [2],99%
same,remaining activity at 10 µM,PIP4K2a(h); [2],102%
same,remaining activity at 10 µM,eEF-2K(h); [2],79%
"Fc1ccc(CNc2ncnc3ccc(F)cc23)cc1 [5aa, 6-Fluoro-N-(4-fluorobenzyl)-4-Quinazolinamine]",remaining activity at 10 µM,CDK12/cyclinK(h); [3],84%
same,remaining activity at 10 µM,Hck(h) activated; [3],85%
same,remaining activity at 10 µM,[1]; [3],102%
same,remaining activity at 10 µM,PIP4K2a(h); [3],93%
same,remaining activity at 10 µM,eEF-2K(h); [3],87%
"Fc1ccc2ncnc(NCCc3ccc(Cl)cc3)c2c1 [5at, N-[2-(4-Chlorophenyl)Ethyl]-6-Fluoro-4-Quinazolinamine]",remaining activity at 10 µM,CDK12/cyclinK(h); [4],93%
same,remaining activity at 10 µM,Hck(h) activated; [4],108%
same,remaining activity at 10 µM,[1]; [4],101%
same,remaining activity at 10 µM,PIP4K2a(h); [4],92%
same,remaining activity at 10 µM,eEF-2K(h); [4],85%
"Fc1ccc(CCNc2ncnc3ccc(F)cc23)cc1 [5as, 6-Fluoro-N-[2-(4-Fluorophenyl)Ethyl]-4-Quinazolinamine]",remaining activity at 10 µM,CDK12/cyclinK(h); [5],72%
same,remaining activity at 10 µM,Hck(h) activated; [5],85%
same,remaining activity at 10 µM,[1]; [5],98%
same,remaining activity at 10 µM,PIP4K2a(h); [5],96%
same,remaining activity at 10 µM,eEF-2K(h); [5],85%
